In patent US20090246198A1, “MAPK/ERK KINASE INHIBITORS AND METHODS OF USE THEREOF” (TAKEDA PHARMACEUTICAL COMPANY LIMITED, priority 2008, published 2009):

These compounds were tested against T1, MEK1 (Homo sapiens, UniProt Q02750, DEL33-52/S218E/S222D) (assay: MEK1 inhibition, fluorescence polarization (IMAP) assay with ERK1 and FI-Erktide). Conditions: 1 nM MEK1, 25 nM ERK1, 400 μM ATP, 22 min at room temperature; read-out: pIC50 (nM); IC50 of Exemplified Compounds against MEK1 (converted).
T1 construct: 6-histidine tag (N); made in house; host or cells: MEK1: baculovirus / Spodoptera frugiperda Sf9; ERK1: E. coli
T1 sequence (Q02750 with tags, fused parts or gaps DEL33-52/S218E/S222D): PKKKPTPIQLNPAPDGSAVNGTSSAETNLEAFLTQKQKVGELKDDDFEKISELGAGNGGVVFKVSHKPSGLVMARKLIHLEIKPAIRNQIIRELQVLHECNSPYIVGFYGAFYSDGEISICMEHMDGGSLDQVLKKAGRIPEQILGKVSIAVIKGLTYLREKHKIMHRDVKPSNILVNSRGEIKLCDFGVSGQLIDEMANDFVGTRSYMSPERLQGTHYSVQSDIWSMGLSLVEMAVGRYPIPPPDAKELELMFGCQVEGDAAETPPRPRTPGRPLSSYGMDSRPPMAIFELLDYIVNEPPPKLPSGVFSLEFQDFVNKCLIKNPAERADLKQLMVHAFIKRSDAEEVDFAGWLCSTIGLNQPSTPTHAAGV
Assay type: biochemical
Procedure: […] […] […] SEQ ID NO: 2 is the DNA sequence that was used to encode SEQ ID NO: 1.
The inhibitory properties of compounds relative to MEK1 or MEK2 may be determined using a black 384-well-plate format under the following reaction conditions: 50 mM HEPES pH 7.3, 10 mM NaCl, 10 mM MgCl2, 0.01% Brij35, 1 nM MEK1 or 4 nM MEK2, 25 nM ERK1, 400 μM ATP, 500 nM IPTTPITTYFFFK-5FAM-COOH (FI-Erktide), and 1% DMSO. Reaction product is determined quantitatively by fluorescent polarization using progressive IMAP beads from Molecular Devices.
The assay reaction may be initiated as follows: 2 μl of the mixture of 1.5 μM FI-Erktide and 75 nM ERK with 2 μl of inhibitor (2 fold serial dilutions for 11 data points for each inhibitor) containing 3% DMSO were added to each well of the plate, followed by the addition of 2 μl of the mixture of 3 nM MEK1 or 12 nM MEK2and 1200 μM ATP to initiate the reaction (final enzyme concentration was 1 nM for MEK1 or 4 nM for MEK2). The reaction mixture may then be incubated at room temperature for 22 min, and quenched and developed by addition of 20 μl of 1:200 dilution of progressive IMAP beads (Molecular Devices) in 80% buffer A, 20% buffer B and 0.003% Tween 20. Fluorescence polarization of the resulting reaction mixtures may be measured after a 1 hour incubation at room temperature.
IC50 values may be calculated by non-linear curve fitting of the compound concentrations and fluorescence polarization signal to the standard IC50 equation.
With `Cn1c(=O)cc(Nc2ccc(Br)cc2F)c2c(=O)n(CC(O)CO)ccc21` (racemic) [Example 2, 4-(4-bromo-2-fluorophenylamino)-6-(2,3-dihydroxypropyl)-1-methyl-1,6-naphthyridine-2,5(1H,6H)-dione] the IC50 was < 100 nM.
`Cn1c(=O)cc(Nc2ccc(I)cc2F)c2c(=O)n(C[C@@H](O)CO)ccc21` [Example 1R, (R)-6-(2,3-dihydroxypropyl)-4-(2-fluoro-4-iodophenylamino)-1-methyl-1,6-naphthyridine-2,5(1H,6H)-dione] was tested, and the IC50 was < 100 nM.
`Cn1c(=O)cc(Nc2ccc(I)cc2F)c2c(=O)n(C[C@H](O)CO)ccc21` [Example 1S, (S)-6-(2,3-dihydroxypropyl)-4-(2-fluoro-4-iodophenylamino)-1-methyl-1,6-naphthyridine-2,5(1H,6H)-dione] was tested, and the IC50 was < 100 nM.
With `Cn1c(=O)cc(Nc2ccc(Br)cc2F)c2c(=O)n(C[C@@H](O)CO)ccc21` [Example 2R, (R)-4-(4-bromo-2-fluorophenylamino)-6-(2,3-dihydroxypropyl)-1-methyl-1,6-naphthyridine-2,5(1H,6H)-dione] the IC50 was ≥ 100 nM.
In the case of `Cn1c(=O)cc(Nc2ccc(Br)cc2F)c2c(=O)n(C[C@H](O)CO)ccc21` [Example 2S, (S)-4-(4-bromo-2-fluorophenylamino)-6-(2,3-dihydroxypropyl)-1-methyl-1,6-naphthyridine-2,5(1H,6H)-dione], the IC50 was < 100 nM.
For `Cn1c(=O)c(F)c(Nc2ccc(I)cc2F)c2c(=O)n(C[C@@H](O)CO)ccc21` [Example 3R, (R)-6-(2,3-dihydroxypropyl)-3-fluoro-4-(2-fluoro-4-iodophenylamino)-1-methyl-1,6-naphthyridine-2,5(1H,6H)-dione], the IC50 was < 100 nM.
For `Cn1c(=O)c(F)c(Nc2ccc(I)cc2F)c2c(=O)n(C[C@H](O)CO)ccc21` [Example 3S, (S)-6-(2,3-dihydroxypropyl)-3-fluoro-4-(2-fluoro-4-iodophenylamino)-1-methyl-1,6-naphthyridine-2,5(1H,6H)-dione], the IC50 was < 100 nM.
With `Cn1c(=O)c(F)c(Nc2ccc(Br)cc2F)c2c(=O)n(C[C@@H](O)CO)ccc21` [Example 4, (R)-4-(4-bromo-2-fluorophenylamino)-6-(2,3-dihydroxypropyl)-3-fluoro-1-methyl-1,6-naphthyridine-2,5(1H,6H)-dione] the IC50 was < 100 nM.
`C#Cc1ccc(Nc2c(F)c(=O)n(C)c3ccn(C[C@@H](O)CO)c(=O)c23)c(F)c1` [Example 5, (R)-6-(2,3-dihydroxypropyl)-4-(4-ethynyl-2-fluorophenylamino)-3-fluoro-1-methyl-1,6-naphthyridine-2,5(1H,6H)-dione] was tested, and the IC50 was < 100 nM.
In the case of `Cn1c(=O)cc(Nc2ccc(C3CC3)cc2F)c2c(=O)n(C[C@@H](O)CO)ccc21` [Example 6, (R)-4-(4-cyclopropyl-2-fluorophenylamino)-6-(2,3-dihydroxypropyl)-1-methyl-1,6-naphthyridine-2,5(1H,6H)-dione], the IC50 was ≥ 100 nM.
